Entries after “also recorded” stand apart in the source; their conditions may differ.
How the values were obtained:
[1] = test system: Acyrthosiphon pisum aphids; assay: Aphid survival monitoring; type: in vivo
[2] = test system: Acyrthosiphon pisum aphids; assay: Aphid developmental stage monitoring; type: in vivo; conditions: for aphids that did not mature further than the 4rd instar stage: 11 days post-treatment
Protocol: (§1) In addition, the developmental stage (1st, 2nd, 3rd, 4th, 5th instar) was determined daily throughout the experiment. Once an aphid reached the 4th instar stage, they were given their own artificial feeding system in a deep petri dish so that fecundity could be monitored once they reached adulthood.
Each treatment group received approximately the same number of individuals from each of the collection plant. For each treatment, 20 aphids were placed onto each leaf. Aphids were monitored daily for survival and dead aphids were removed when they were discovered. In addition, the developmental stage (1st, 2nd, 3rd, 4th, 5th instar, and 5 R, representing a reproducing 5th instar) was determined daily throughout the experiment. Pictures of aphids were taken throughout the experiment to evaluate size differences between treatment groups.
Aphids LSR-1 (which harbor only Buchnera), Acyrthosiphon pisum were grown on fava bean plants (Vroma vicia faba from Johnny's Selected Seeds) in a climate-controlled incubator (16 h light/8 h dark photoperiod; 60±5% RH; 25±2° C.). Prior to being used for aphid rearing, fava bean plants were grown in potting soil at 24° C. with 16 h of light and 8 h of darkness. To limit maternal effects or health differences between plants, 5-10 adults from different plants were distributed among 10 two-week-old plants, and allowed to multiply to high density for 5-7 days. For experiments, first and second instar aphids were collected from healthy plants and divided into 2 different treatment groups: 1) negative control (leaf injected with water plus blue food coloring) and 2) leaf injected with 50 μg/ml rifampicin in water plus blue food coloring. Each treatment group received approximately the same number of individuals from each of the collection plants. For treatment, rifampicin stock solution (25 mg/ml in 100% methanol) was diluted to 50 μg/ml in water plus blue food coloring. The solution was then placed into a 1.5 ml Eppendorf tube with a fava bean stem perfused with the solutions and the opening of the tube was closed using parafilm. This feeding system was then placed into a deep petri dish (Fisher Scientific, Cat #FB0875711) and aphids were applied to the leaves of the plant. For each treatment, 74-81 aphids were placed onto each leaf. The feeding systems were changed every 2-3 days throughout the experiment. Aphids were monitored daily for survival and dead aphids were removed from the deep petri dish when they were discovered. In addition, the developmental stage (1st, 2nd, 3rd, 4th, 5th and 5 R (5th that has reproduced) instar) was determined daily throughout the experiment.
In addition, the developmental stage (1st 2nd, 3rd, 4th, 5th and 5 R (5th that has reproduced) instar) was determined daily throughout the experiment.
(§2) In addition, the developmental stage (1st, 2nd, 3rd, 4th, 5th, and 5 R (5th that has reproduced) instar) was determined daily throughout the experiment.
In addition, the developmental stage (1st, 2nd, 3rd, 4th, 5th and 5 R (5th that has reproduced) instar) was determined daily throughout the experiment.
In addition, the developmental stage (1st, 2nd, 3rd, 4th, 5th, and 5 R (5th instar aphids that are reproducing) instar) was determined daily throughout the experiment.
In addition, the developmental stage (1st, 2nd, 3rd 4th and 5th instar) was determined daily throughout the experiment.
as §1, with “5th, and 5 R (5th that has reproduced)” for “5th”
as §2

Buchnera = assay: Buchnera/aphid DNA copy number by qPCR; type: in vivo, Acyrthosiphon pisum; conditions: lowest concentration (0.5%), 3 days

## Cc1cc2c(C(C)C)c(O)c(O)c(C=O)c2c(O)c1-c1c(C)cc2c(C(C)C)c(O)c(O)c(C=O)c2c1O [gossypol, gossypol acetic acid]
[1]; 0.5%, through plants
  time after which aphids began dying: 2 days
  time by which all aphids succumbed to treatment: ≤ 4 days

## CC(=O)CCC(=O)O [levulinic acid]
[2]; 0.03%
  aphids that did not mature further than the 4rd instar stage: ~23%
[2]; 0.03 or 0.3% in water, leaf injection and through plant, eNASCO
  aphid development: delayed aphid development
[2]; 0.3%
  aphids that did not mature further than the 4rd instar stage: ~63%
[1]; 0.03%, 11-day experiment
  aphid survival: higher mortality compared to control treated aphids
[1]; 0.03 or 0.3%
  aphid survival: dose-dependent decrease in survival; also recorded: decrease in insect survival
[1]; 0.3%, 11-day experiment
  aphid survival: significantly less

## O=C/C=C/c1ccccc1 [trans-cinnemaldehyde]
[2]; 0.05%, 0.5% and 5% in water, leaf perfusion and through plants, 3 days
  aphid development: delayed
[2]; 0.05%, 0.5% and 5% in water, leaf perfusion and through plants, 3 days, listed as Trans-cinnemaldehyde
  aphid development: delayed aphid development
[2]; 5%
  aphid development (stage reached): remained at the 1st instar stage throughout the course of the experiment
[1]; 0.05%, 0.5%, and 5%
  aphid survival: dose-dependent decrease in survival; also recorded: significantly lower
Buchnera
  Buchnera/aphid DNA copies: high ratios of Buchnera/aphid DNA copies
